Assay results published in patent US6900219B2, “ABCA-1 elevating compounds” (CV Therapeutics, Inc., priority 2002, dated 2005).

system: ABCA-1 gene; assay: compounds tested and found to elevate cellular expression of the ABCA-1 gene (Examples 1-6; test not named); format: cell-based
Description: Activity testing is conducted as described in those patents and patent applications referenced above, and in the Examples below, and by methods apparent to one skilled in the art.

Structure (SMILES)	cellular expression of the ABCA-1 gene
O=C(Nc1ccccc1)Nc1ccc2c(c1)CCC2 [N-indan-5-yl(phenylamino)carboxamide]	elevate cellular expression of the ABCA-1 gene
O=C(Nc1ccc2c(c1)CCC2)c1cccs1 [N-indan-5-yl-2-thienylcarboxamide]	elevate cellular expression of the ABCA-1 gene
CNC(=O)C(Sc1nnc(NC(=O)c2ccc(C)cc2)s1)C(C)=O (centres unmarked) [N-methyl-2-{5-[(4-methylphenyl)carbonylamino](1,3,4-thiadiazol-2-ylthio)}-3-oxobutanamide]	elevate cellular expression of the ABCA-1 gene
CCC(c1nc2ccccc2c(=O)n1-c1ccc(C)c(C)c1)N(CCOC)C(=O)Nc1ccc(Cl)cc1 (centres unmarked) [N-{[3-(3,4-dimethylphenyl)-4-oxo(3-hydroquinazolin-2-yl)]propyl}[(4-chlorophenyl)amino]-N-(2-methoxyethyl)carboxamide]	elevate cellular expression of the ABCA-1 gene
CCC(c1nc2ccccc2c(=O)n1-c1ccc(C)c(C)c1)N(Cc1ccccc1)C(=O)Nc1ccc(OC)cc1 (centres unmarked) [N-{[3-(3,4-dimethylphenyl)-4-oxo(3-hydroquinazolin-2-yl)]propyl}[(4-methoxyphenyl)amino]-N-benzylcarboxamide]	elevate cellular expression of the ABCA-1 gene
CCNC(=O)N(Cc1ccco1)C(C)c1nc2ccccc2c(=O)n1-c1ccc(Br)cc1 (centres unmarked) [N-{[3-(4-bromophenyl)-4-oxo(3-hydroquinazolin-2-yl)]ethyl}(ethylamino)-N-(2-furylmethyl)carboxamide]	elevate cellular expression of the ABCA-1 gene
CCCCN(C(=O)Nc1ccc(OC)cc1)C(C)c1nc2ccccc2c(=O)n1-c1ccc(Br)cc1 (centres unmarked) [N-{[3-(4-bromophenyl)-4-oxo(3-hydroquinazolin-2-yl)]ethyl}-N-butyl[(4-methoxyphenyl)amino]carboxamide]	elevate cellular expression of the ABCA-1 gene
CC(C)c1ccc(NC(=O)N(Cc2ccco2)C(C)c2nc3ccccc3c(=O)n2-c2ccc(Cl)cc2)cc1 (centres unmarked) [N-{[3-(4-chlorophenyl)-4-oxo(3-hydroquinazolin-2-yl)]ethyl}-N-(2-furylmethyl){[4-(methylethyl)phenyl]amino}carboxamide]	elevate cellular expression of the ABCA-1 gene
CCCN(C(=O)Nc1cccc(OC)c1)C(C)c1nc2cc(Cl)ccc2c(=O)n1-c1ccc(C)cc1 (centres unmarked) [N-{[7-chloro-3-(4-methylphenyl)-4-oxo(3-hydroquinazolin-2-yl)]ethyl}[(3-methoxyphenyl)amino]-N-propylcarboxamide]	elevate cellular expression of the ABCA-1 gene
Cc1c(C(=O)NC(=O)Nc2ccccc2Cl)cnn1-c1ccccc1 [N-{[(2-chlorophenyl)amino]carbonyl}(5-methyl-1-phenylpyrazol-4-yl)carboxamide]	elevate cellular expression of the ABCA-1 gene
CCN(CCCN(CC)c1nc2cc(C(=O)Nc3ccc(OC)cc3)ccc2o1)C(=O)c1cccc(F)c1C [[2-(ethyl{3-[N-ethyl(3-fluoro-2-methylphenyl)carbonylamino]propyl}amino)benzoxazol-5-yl]-N-(4-methoxyphenyl)carboxamide]	elevate cellular expression of the ABCA-1 gene
O=C(Nc1ncc(-c2ccccc2)s1)c1ccc(C(F)(F)F)cc1F [[2-fluoro-4-(trifluoromethyl)phenyl]-N-(5-phenyl(1,3-thiazol-2-yl))carboxamide]	elevate cellular expression of the ABCA-1 gene
Cc1onc(-c2ccccc2Cl)c1C(=O)Nc1ncc(-c2ccccc2)s1 [[3-(2-chlorophenyl)-5-methylisoxazol-4-yl]-N-(5-phenyl(1,3-thiazol-2-yl))carboxamide]	elevate cellular expression of the ABCA-1 gene
O=C(Nc1ncc(-c2ccccc2)s1)c1ccc(C(F)(F)F)c(F)c1 [[3-fluoro-4-(trifluoromethyl)phenyl]-N-(5-phenyl(1,3-thiazol-2-yl))carboxamide]	elevate cellular expression of the ABCA-1 gene
CCc1c(C(=O)N2CCN(C(=O)c3cccc(Br)c3)C(C)C2)cnn1-c1nc(-c2ccc(Cl)cc2)cs1 (centres unmarked) [[4-(3-bromo-benzoyl)-3-methyl-piperazin-1-yl]-{1-[4-(4-chloro-phenyl)-thiazol-2-yl]-5-ethyl-1H-pyrazol-4-yl}-methanone]	elevate cellular expression of the ABCA-1 gene
CCc1c(C(=O)N2CCN(C(=O)c3ccc(-c4ccccc4)cc3)C(C)C2)cnn1-c1nc(-c2ccc(OC)cc2)cs1 (centres unmarked) [[4-(biphenyl-4-carbonyl)-3-methyl-piperazin-1-yl]-{5-ethyl-1-[4-(4-methoxy-phenyl)-thiazol-2-yl]-1H-pyrazol-4-yl}-methanone]	elevate cellular expression of the ABCA-1 gene
CN(C)c1ccc(C(=O)NC2=NCCS2)cc1 [[4-(dimethylamino)phenyl]-N-(1,3-thiazolin-2-yl)carboxamide]	elevate cellular expression of the ABCA-1 gene
CN(C)c1ccc(C(=O)NC2=NC(=O)CS2)cc1 [[4-(dimethylamino)phenyl]-N-(4-oxo(1,3-thiazolin-2-yl))carboxamide]	elevate cellular expression of the ABCA-1 gene

Structure (SMILES)	cellular expression of the ABCA-1 gene
CC(C)c1ccc(C(=O)NC2=NCCS2)cc1 [[4-(methylethyl)phenyl]-N-(1,3-thiazolin-2-yl)carboxamide]	elevate cellular expression of the ABCA-1 gene
CC(C)(C)c1ccc(C(=O)NC2=NCCS2)cc1 [[4-(tert-butyl)phenyl]-N-(1,3-thiazolin-2-yl)carboxamide]	elevate cellular expression of the ABCA-1 gene
CC(C)(C)c1ccc(C(=O)Nc2nc(-c3ccc4ccccc4c3)cs2)cc1 [[4-(tert-butyl)phenyl]-N-(4-(2-naphthyl)(1,3-thiazol-2-yl))carboxamide]	elevate cellular expression of the ABCA-1 gene
CC(C)(C)c1ccc(C(=O)NC2=NC(=O)CS2)cc1 [[4-(tert-butyl)phenyl]-N-(4-oxo(1,3-thiazolin-2-yl))carboxamide]	elevate cellular expression of the ABCA-1 gene
CC(C)(C)c1ccc(C(=O)Nc2ncc(-c3ccccc3)s2)cc1 [[4-(tert-butyl)phenyl]-N-(5-phenyl(1,3-thiazol-2-yl))carboxamide]	elevate cellular expression of the ABCA-1 gene
CC(C)(C)c1ccc(C(=O)Nc2nc(-c3ccc(Cl)cc3)cs2)cc1 [[4-(tert-butyl)phenyl]-N-[4-(4-chlorophenyl)(1,3-thiazol-2-yl)]carboxamide]	elevate cellular expression of the ABCA-1 gene
CC(C)(C)c1ccc(C(=O)N(CCc2ccccn2)Cc2ccccc2[N+](=O)[O-])cc1 [[4-(tert-butyl)phenyl]-N-[(2-nitrophenyl)methyl]-N-(2-(2-pyridyl)ethyl)carboxamide]	elevate cellular expression of the ABCA-1 gene
CC(c1nc2ccccc2c(=O)n1-c1ccc2ccccc2c1)N(CCN(C)C)C(=O)Nc1ccc(F)cc1F (centres unmarked) [[(2,4-difluorophenyl)amino]-N-[2-(dimethylamino)ethyl]-N-[(3-(2-naphthyl)-4-oxo(3-hydroquinazolin-2-yl))ethyl]carboxamide]	elevate cellular expression of the ABCA-1 gene
CCC(c1nc2ccccc2c(=O)n1-c1ccc(Cl)cc1)N(CCOC)C(=O)Nc1ccc(F)cc1F (centres unmarked) [[(2,4-difluorophenyl)amino]-N-{[3-(4-chlorophenyl)-4-oxo(3-hydroquinazolin-2-yl)]propyl}-N-(2-methoxyethyl)carboxamide]	elevate cellular expression of the ABCA-1 gene
Cc1cccc(C)c1NC(=O)N(Cc1ccccc1)C(C)c1nc2ccccc2c(=O)n1-c1ccc2ccccc2c1 (centres unmarked) [[(2,6-dimethylphenyl)amino]-N-[(3-(2-naphthyl)-4-oxo(3-hydroquinazolin-2-yl))ethyl]-N-benzylcarboxamide]	elevate cellular expression of the ABCA-1 gene
Cc1ccccc1NC(=O)N(CC(C)C)C(C)c1nc2ccccc2c(=O)n1-c1ccc2ccccc2c1 (centres unmarked) [[(2-methylphenyl)amino]-N-(2-methylpropyl)-N-[(3-(2-naphthyl)-4-oxo(3-hydroquinazolin-2-yl))ethyl]carboxamide]	elevate cellular expression of the ABCA-1 gene
CC(C)CN(C(=O)Nc1cccc(Br)c1)C(C)c1nc2ccccc2c(=O)n1-c1ccc2ccccc2c1 (centres unmarked) [[(3-bromophenyl)amino]-N-(2-methylpropyl)-N-[(3-(2-naphthyl)-4-oxo(3-hydroquinazolin-2-yl))ethyl]carboxamide]	elevate cellular expression of the ABCA-1 gene
CC(C)CN(C(=O)Nc1cccc(Cl)c1)C(C)c1nc2ccccc2c(=O)n1-c1ccc2ccccc2c1 (centres unmarked) [[(3-chlorophenyl)amino]-N-(2-methylpropyl)-N-[(3-(2-naphthyl)-4-oxo(3-hydroquinazolin-2-yl))ethyl]carboxamide]	elevate cellular expression of the ABCA-1 gene
O=C(Nc1cccc(Cl)c1)Nc1ccc2c(c1)CCC2 [[(3-chlorophenyl)amino]-N-indan-5-ylcarboxamide]	elevate cellular expression of the ABCA-1 gene
CCCN(C(=O)Nc1cccc(F)c1)C(C)c1nc2ccccc2c(=O)n1-c1ccc2ccccc2c1 (centres unmarked) [[(3-fluorophenyl)amino]-N-[(3-(2-naphthyl)-4-oxo(3-hydroquinazolin-2-yl))ethyl]-N-propylcarboxamide]	elevate cellular expression of the ABCA-1 gene
CC(=O)c1ccc(NC(=O)Nc2ccc(Cl)c(Cl)c2)cc1 [[(4-acetylphenyl)amino]-N-(3,4-dichlorophenyl)carboxamide]	elevate cellular expression of the ABCA-1 gene
CCCN(C(=O)Nc1ccc(Br)cc1)C(C)c1nc2ccccc2c(=O)n1-c1ccc2ccccc2c1 (centres unmarked) [[(4-bromophenyl)amino]-N-[(3-(2-naphthyl)-4-oxo(3-hydroquinazolin-2-yl))ethyl]-N-propylcarboxamide]	elevate cellular expression of the ABCA-1 gene
